Data on 7 compounds can be found in ChEMBL document CHEMBL3853354, “Structure-activity relationships of proline modifications around the tetracyclic-indole class of NS5A inhibitors” (Bioorg Med Chem Lett, 2016).

Data set [1] can be described thus: Selectivity ratio of EC90 for NS5A in HCV genotype 2b to EC90 for NS5A in HCV genotype 1a.
Data set [2] deals with T1, Nonstructural protein 5A (Hepatitis C virus), Q5L478 [Y93H].
T1 sequence (whole entry): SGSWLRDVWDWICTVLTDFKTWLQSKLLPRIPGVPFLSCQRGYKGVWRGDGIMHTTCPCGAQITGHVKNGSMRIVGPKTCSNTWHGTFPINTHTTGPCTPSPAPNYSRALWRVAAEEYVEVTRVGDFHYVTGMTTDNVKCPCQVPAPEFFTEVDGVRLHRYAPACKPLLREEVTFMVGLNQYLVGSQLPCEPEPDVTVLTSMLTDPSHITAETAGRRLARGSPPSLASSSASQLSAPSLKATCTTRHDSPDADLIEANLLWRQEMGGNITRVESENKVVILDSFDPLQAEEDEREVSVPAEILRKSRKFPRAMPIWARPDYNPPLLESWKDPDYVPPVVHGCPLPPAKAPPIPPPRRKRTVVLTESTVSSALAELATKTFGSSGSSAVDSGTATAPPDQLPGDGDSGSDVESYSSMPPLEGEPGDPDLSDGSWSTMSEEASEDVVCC
The data set can be described thus: Inhibition of NS5A Y93H mutant in HCV genotype 1a assessed as reduction in replicon RNA level after 3 days by cell based RT-PCR method. To be noted: Hepatitis C virus subtype 1a. Background: Replicon systems follow genome replication, usually without infectious particles.

Data set [3] concerns Hepatitis C virus subtype 2b. Kind of data set: Inhibition of NS5A in HCV genotype 2b assessed as reduction in replicon RNA level after 3 days by cell based RT-PCR method.
The subject of data set [4] is Hepatitis C virus subtype 1a. Kind of data set: Selectivity ratio of EC90 for NS5A Y93H mutant in HCV genotype 1a to EC90 for NS5A in HCV genotype 1a.
In data set [5] the test system is Hepatitis C virus subtype 1a. The data set can be described thus: Inhibition of NS5A in HCV genotype 1a assessed as reduction in replicon RNA level after 3 days by cell based RT-PCR method.
In data set [6] the test system is Hepatitis C virus subtype 1a. The data set can be described thus: Selectivity ratio of EC90 for NS5A L31V mutant in HCV genotype 1a to EC90 for NS5A in HCV genotype 1a.
The subject of data set [7] is Nonstructural protein 5A (Hepatitis C virus), Q5L478 [UNDEFINED MUTATION]. Kind of data set: Inhibition of NS5A L31V mutant in HCV genotype 1a assessed as reduction in replicon RNA level after 3 days by cell based RT-PCR method. As to conditions: Hepatitis C virus subtype 1a.
Data set [8] is described as follows: Half life in rat at 2 mg/kg, iv. It counts as ADME, organism-based. As to conditions: in vivo.
The nature of data set [9]: Oral bioavailability in rat at 10 mg/kg. It counts as ADME, organism-based. To be noted: in vivo.
Data set [10] can be described thus: Clearance in rat at 2 mg/kg, iv. The class given is ADME, organism-based. As to conditions: in vivo.
Data set [11] in a line: AUC in rat at 10 mg/kg, po. The class given is ADME, organism-based. As to conditions: in vivo.
Data set [12] can be described thus: Cmax in rat at 10 mg/kg, po. It counts as ADME, organism-based. Further details: dose 10 mg/kg, route oral. To be noted: in vivo.
Data set [13] has as its system Hepatitis C virus subtype 3a. Kind of data set: Inhibition of NS5A in HCV genotype 3a assessed as reduction in replicon RNA level after 3 days by cell based RT-PCR method.

Broadly, the EC90 is the point of the concentration-response curve where the effect stands at 90%. `COC(=O)N[C@H](C(=O)N1CCC[C@H]1c1ncc(-c2ccc3c(c2)cc2n3C(c3cccc(OC)c3)Oc3cc(-c4cnc([C@@H]5C[C@@H](F)CN5C(=O)[C@@H](NC(=O)OC)C(C)C)[nH]4)ccc3-2)[nH]1)C(C)C` (stereo partly drawn): the Selectivity ratio in [1] was more than 3040; in data set [4], more than 990; in data set [6], more than 41. The EC90 was 19.8 nM in data set [2], 60.8 nM in data set [3], less than 0.02 nM in data set [5] and 0.81 nM in [7].
Broadly, the half-life is the time needed for the level to fall by half in the phase considered. A word on the bioavailability: it is the share of a dose that reaches the circulation, judged against a reference dose that is usually intravenous. A high value points to good availability. A word on the clearance: it is the volume of plasma or blood freed of the substance per unit of time. Broadly, the AUC is the area under the concentration-time curve, a measure of exposure. As usually defined, the Cmax is the highest concentration seen after dosing. In the case of `COC(=O)N[C@H](C(=O)N1CCC[C@H]1c1ncc(-c2ccc3c(c2)OC(c2cccc(OC)c2)n2c-3cc3cc(-c4cnc([C@@H]5C[C@H]6C[C@H]6N5C(=O)[C@@H](NC(=O)OC)C(C)C)[nH]4)ccc32)[nH]1)C(C)C` (stereo partly drawn), the results for the Selectivity ratio in [1], in [4] and in data set [6] were 360, 500 and 10, respectively. The compound further showed a half-life in data set [8] of 4.7 h. The same compound registered a bioavailability in [9] of 13%. The EC90 stood at 6.45 nM in data set [2], 4.66 nM in [3], 0.013 nM in [5] and 0.13 nM in data set [7]. Besides, in [10], the clearance worked out at 6 mL/min/kg. This compound also yielded an AUC in data set [11] of 3.64 µM·h. In data set [12], this compound displayed a Cmax of 630 nM.
`COC(=O)N[C@H](C(=O)N1CCC[C@H]1c1ncc(-c2cc(F)c3c(c2)OC(c2ccc4c(c2)OCCC4)n2c-3cc3cc(-c4cnc([C@@H]5CCCN5C(=O)[C@@H](NC(=O)OC)C(C)C)[nH]4)ccc32)[nH]1)C(C)C` (stereo partly drawn): the Selectivity ratio in data set [1] amounted to 103; in data set [4], 160; in [6], 1. In addition, the concentration for an effect of 90% (EC90) in data set [2] amounted to 0.48 nM; in data set [3] it was 0.31 nM; in data set [5], 0.003 nM; in data set [7] it was 0.0025 nM.
Take `COC(=O)N[C@H](C(=O)N1CCC[C@H]1c1ncc(-c2ccc3c(c2)cc2n3C(c3ccccc3)Oc3cc(-c4cnc([C@@H]5C[C@@H](F)CN5C(=O)[C@@H](NC(=O)OC)C(C)C)[nH]4)cc(F)c3-2)[nH]1)C(C)C` (stereo partly drawn): the Selectivity ratio in data set [1] is 10600; in data set [4], 233; in data set [6], 362. Moreover, the concentration for an effect of 90% (EC90) came out at 1.4 nM in data set [2], 63.6 nM in data set [3], 0.006 nM in data set [5] and 2.17 nM in [7].
Regarding `COC(=O)N[C@H](C(=O)N1CCC[C@H]1c1ncc(-c2cc(F)c3c(c2)OC(c2ccc4c(c2)OCCC4)n2c-3cc3cc(-c4cnc([C@@H]5C[C@H]6C[C@H]6N5C(=O)[C@@H](NC(=O)OC)C(C)C)[nH]4)ccc32)[nH]1)C(C)C` (stereo partly drawn), the Selectivity ratio in [1] was 95; in data set [4] it was 30; in data set [6], 2. Also, the half-life in data set [8] was 4.6 h. In addition, the bioavailability in data set [9] was determined as 4%. Besides, the EC90 in data set [2] is 0.12 nM; in [3] it was 0.38 nM; in data set [5] it was 0.004 nM; in [7], 0.007 nM. Further, in [10], the clearance is 11.4 mL/min/kg. The AUC in [11] turned out to be 0.63 µM·h. Moreover, the Cmax in data set [12] is 73 nM.
For the compound `COC(=O)N[C@H](C(=O)N1CCC[C@H]1c1ncc(-c2cc(F)c3c(c2)OC(c2ccccc2)n2c-3cc3cc(-c4cnc([C@@H]5C[C@H]6C[C@H]6N5C(=O)[C@@H](NC(=O)OC)C(C)C)[nH]4)ccc32)[nH]1)C(C)C` (stereo partly drawn), the Selectivity ratio in data set [1] is 1000; in [4], 200; in data set [6], 26. For the same compound, the EC90 in [2] is 3.17 nM; in [3], 16.3 nM; in data set [5] it was 0.016 nM; in [7] it was 0.42 nM.
With `COC(=O)N[C@H](C(=O)N1CCC[C@H]1c1ncc(-c2cc(F)c3c(c2)OC(c2cccc(OC)c2)n2c-3cc3cc(-c4cnc([C@@H]5CCCN5C(=O)[C@@H](NC(=O)OC)C(C)C)[nH]4)ccc32)[nH]1)C(C)C` (stereo partly drawn), the Selectivity ratio is 570 in data set [1], 230 in data set [4] and 20 in data set [6]. Further, the EC90 is 0.07 nM in data set [13], 5.72 nM in data set [3] and 0.01 nM in [5].
